Earlier results on one compound are cited in patent publication US20240285773A1, “METHODS OF TREATING MYELODYSPLASTIC SYNDROME AND MONITORING THE TREATMENT” (Geron Corporation, priority 2023, published 2024).

The data set has as its system patients with del(5q) MDS. The conditions noted are these: cited from earlier work.

In the case of `Nc1cccc2c1CN(C1CCC(=O)NC1=O)C2=O` (stereo not shown) [lenalidomide, 3-(4-Amino-1-oxoisoindolin-2-yl)piperidine-2,6-dione], the “Transfusion independence, proportion of patients” value is “two-thirds”.
